For 23 compounds, IC50 results are on record in patent US10308639B2, “Phosphatidylinositol 3-kinase inhibitors” (Gilead Sciences, Inc., priority 2014, dated 2019).

What all share (type): biochemical
For one experiment, the target named is T1, PI3Kβ (Homo sapiens, UniProt P42338).
T1 construct: made in house
In words: TR-FRET enzymatic activity assay, PI3Kβ.

In another experiment the target is T2, PI3Kδ (Homo sapiens, UniProt O00329).
T2 construct: made in house
In words: TR-FRET enzymatic activity assay, PI3Kδ. (In general: TR-FRET usually uses a lanthanide donor and a delayed reading to cut background.)

Another experiment addresses T3, PI3Kγ (Homo sapiens, UniProt P48736).
T3 construct: made in house
In words: TR-FRET enzymatic activity assay, PI3Kγ. Particulars: read-out: PI3Kγ IC50. The method in brief:
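TR-FRET read-out of enzyme activity, run separately for each PI3K isoform.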

[1] abbreviates: Table 2, TR-FRET, 2x Km ATP, 30 minutes at 25° C.

Like-named read-outs stand apart in the source and are kept apart here.

T3 sequence (P48736 whole entry): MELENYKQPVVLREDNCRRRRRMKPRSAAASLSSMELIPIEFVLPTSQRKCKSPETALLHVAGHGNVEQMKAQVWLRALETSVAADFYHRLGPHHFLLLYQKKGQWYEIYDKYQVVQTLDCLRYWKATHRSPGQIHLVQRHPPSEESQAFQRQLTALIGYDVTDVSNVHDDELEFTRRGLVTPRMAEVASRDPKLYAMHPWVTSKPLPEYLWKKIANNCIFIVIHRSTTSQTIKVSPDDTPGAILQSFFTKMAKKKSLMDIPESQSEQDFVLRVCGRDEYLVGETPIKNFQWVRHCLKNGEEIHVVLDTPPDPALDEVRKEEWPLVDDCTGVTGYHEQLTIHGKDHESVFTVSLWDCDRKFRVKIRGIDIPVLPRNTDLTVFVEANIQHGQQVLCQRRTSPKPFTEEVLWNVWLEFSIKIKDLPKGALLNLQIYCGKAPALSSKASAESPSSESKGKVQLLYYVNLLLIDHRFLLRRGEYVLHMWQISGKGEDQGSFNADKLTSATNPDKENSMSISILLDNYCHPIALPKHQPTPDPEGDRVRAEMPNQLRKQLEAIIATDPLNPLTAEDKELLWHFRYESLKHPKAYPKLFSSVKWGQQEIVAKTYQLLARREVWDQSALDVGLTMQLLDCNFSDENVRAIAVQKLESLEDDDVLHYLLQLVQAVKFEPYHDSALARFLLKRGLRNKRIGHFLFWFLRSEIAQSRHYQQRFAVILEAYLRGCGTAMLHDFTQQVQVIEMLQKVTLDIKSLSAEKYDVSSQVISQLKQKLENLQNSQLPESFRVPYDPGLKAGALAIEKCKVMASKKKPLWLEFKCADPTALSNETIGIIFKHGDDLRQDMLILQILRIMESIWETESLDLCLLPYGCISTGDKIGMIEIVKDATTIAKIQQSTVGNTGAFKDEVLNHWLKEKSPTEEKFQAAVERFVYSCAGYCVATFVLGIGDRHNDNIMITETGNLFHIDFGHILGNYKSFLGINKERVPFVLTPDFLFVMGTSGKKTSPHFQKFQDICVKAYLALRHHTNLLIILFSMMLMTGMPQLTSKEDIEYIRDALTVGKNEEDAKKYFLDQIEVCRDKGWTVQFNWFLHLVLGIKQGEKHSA
T1 sequence (P42338 whole entry): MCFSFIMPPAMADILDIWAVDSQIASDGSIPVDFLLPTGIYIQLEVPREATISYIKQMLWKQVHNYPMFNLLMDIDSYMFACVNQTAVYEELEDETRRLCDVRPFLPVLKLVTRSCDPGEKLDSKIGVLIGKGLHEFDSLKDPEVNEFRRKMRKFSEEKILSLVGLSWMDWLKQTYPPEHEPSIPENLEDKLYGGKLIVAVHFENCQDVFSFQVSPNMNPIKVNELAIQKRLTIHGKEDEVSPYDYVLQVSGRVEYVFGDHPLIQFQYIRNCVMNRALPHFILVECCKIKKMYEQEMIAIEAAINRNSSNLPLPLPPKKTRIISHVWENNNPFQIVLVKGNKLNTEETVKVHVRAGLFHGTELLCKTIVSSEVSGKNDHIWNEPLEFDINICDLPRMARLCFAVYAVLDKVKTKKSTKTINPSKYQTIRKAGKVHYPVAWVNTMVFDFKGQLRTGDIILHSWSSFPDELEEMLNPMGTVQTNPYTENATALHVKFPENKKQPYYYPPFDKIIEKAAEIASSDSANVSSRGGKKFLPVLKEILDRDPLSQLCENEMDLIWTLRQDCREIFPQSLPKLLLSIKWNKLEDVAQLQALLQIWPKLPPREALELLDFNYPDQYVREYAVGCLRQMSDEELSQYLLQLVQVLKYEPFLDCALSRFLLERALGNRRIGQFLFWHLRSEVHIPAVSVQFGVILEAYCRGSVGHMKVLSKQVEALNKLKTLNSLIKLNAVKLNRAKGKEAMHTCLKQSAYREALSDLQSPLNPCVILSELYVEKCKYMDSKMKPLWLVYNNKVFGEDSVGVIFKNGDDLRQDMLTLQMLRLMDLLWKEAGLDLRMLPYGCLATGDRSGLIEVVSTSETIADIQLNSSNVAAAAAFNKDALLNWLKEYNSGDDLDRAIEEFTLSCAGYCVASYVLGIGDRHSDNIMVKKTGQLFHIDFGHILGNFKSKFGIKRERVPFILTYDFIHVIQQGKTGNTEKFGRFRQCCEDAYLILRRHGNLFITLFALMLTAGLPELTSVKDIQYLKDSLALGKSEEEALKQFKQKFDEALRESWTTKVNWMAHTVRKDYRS
T1 sequence (P27986 whole entry partner): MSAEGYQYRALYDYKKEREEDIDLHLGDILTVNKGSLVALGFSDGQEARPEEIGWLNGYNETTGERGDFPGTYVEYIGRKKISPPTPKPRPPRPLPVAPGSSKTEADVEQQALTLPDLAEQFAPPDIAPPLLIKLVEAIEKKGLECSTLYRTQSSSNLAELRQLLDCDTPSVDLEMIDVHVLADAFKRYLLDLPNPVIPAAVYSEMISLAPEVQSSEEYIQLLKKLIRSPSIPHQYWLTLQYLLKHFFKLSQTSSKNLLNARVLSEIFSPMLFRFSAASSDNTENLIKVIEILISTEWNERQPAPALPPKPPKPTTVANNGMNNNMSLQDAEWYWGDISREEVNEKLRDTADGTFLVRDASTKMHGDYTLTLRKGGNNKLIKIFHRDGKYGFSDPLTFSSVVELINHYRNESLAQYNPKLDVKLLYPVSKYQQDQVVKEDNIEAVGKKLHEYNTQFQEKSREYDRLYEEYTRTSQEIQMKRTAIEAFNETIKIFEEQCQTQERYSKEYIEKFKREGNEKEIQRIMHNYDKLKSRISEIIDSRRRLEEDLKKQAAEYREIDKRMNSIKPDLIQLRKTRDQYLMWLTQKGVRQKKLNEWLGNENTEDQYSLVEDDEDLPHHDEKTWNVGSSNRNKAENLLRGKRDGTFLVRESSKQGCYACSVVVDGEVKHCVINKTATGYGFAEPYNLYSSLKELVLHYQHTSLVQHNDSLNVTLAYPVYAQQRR
T2 sequence (O00329 whole entry): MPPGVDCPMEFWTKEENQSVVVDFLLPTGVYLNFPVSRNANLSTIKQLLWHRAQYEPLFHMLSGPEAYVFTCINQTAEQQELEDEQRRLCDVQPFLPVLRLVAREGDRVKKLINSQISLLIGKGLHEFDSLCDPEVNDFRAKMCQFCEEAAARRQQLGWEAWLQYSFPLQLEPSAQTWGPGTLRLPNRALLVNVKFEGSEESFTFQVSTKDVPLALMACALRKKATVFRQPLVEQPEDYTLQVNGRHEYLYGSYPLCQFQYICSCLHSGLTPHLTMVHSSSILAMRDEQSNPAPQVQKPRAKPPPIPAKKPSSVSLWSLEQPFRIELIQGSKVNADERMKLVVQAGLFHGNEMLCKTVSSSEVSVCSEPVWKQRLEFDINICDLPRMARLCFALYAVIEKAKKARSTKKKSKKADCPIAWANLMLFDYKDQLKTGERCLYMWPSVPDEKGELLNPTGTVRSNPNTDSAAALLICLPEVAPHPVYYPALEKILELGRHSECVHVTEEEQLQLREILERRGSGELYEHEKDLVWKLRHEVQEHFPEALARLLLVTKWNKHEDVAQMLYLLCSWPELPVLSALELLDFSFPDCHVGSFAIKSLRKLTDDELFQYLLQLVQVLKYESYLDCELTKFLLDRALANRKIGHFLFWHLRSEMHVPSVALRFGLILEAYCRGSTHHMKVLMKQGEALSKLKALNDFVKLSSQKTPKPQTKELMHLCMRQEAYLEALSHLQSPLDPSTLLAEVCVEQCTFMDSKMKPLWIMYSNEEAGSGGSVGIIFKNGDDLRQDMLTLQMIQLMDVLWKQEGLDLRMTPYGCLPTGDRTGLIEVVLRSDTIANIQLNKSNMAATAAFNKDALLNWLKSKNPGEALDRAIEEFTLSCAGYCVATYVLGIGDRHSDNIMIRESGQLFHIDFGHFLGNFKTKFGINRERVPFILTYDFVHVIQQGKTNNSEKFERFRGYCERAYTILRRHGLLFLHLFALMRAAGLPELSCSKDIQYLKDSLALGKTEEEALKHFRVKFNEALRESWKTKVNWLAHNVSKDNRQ
T2 sequence (P27986 whole entry partner): as the sequence (P27986 whole entry partner) above

Usually IC50 stands for the concentration that gives 50% inhibition. As to `C[C@H](Nc1nc(N)nc(N)c1C#N)c1nc2cccc(C(F)(F)F)c2c(=O)n1-c1cc[nH]n1` [Compound 205, (S)-2,4-diamino-6-((1-(4-oxo-3-(1H-pyrazol-3-yl)-5-(trifluoromethyl)-3,4-dihydroquinazolin-2-yl)ethyl)amino)pyrimidine-5-carbonitrile], the IC50 against PI3Kβ (Table 2a, same assay) turned out to be 2 nM; against PI3Kδ (Table 2a, same assay), 0.7 nM; at PI3Kγ (Table 2a, same assay) it was 320 nM.

As to `C[C@H](NC(=O)c1nc(Cl)c(N)nc1N)c1nc2cccc(Cl)c2c(=O)n1-c1cc[nH]n1` [Compound 276, (S)-3,5-diamino-6-chloro-N-(1-(5-chloro-4-oxo-3-(1H-pyrazol-3-yl)-3,4-dihydroquinazolin-2-yl)ethyl)pyrazine-2-carboxamide], the half-maximal inhibitory concentration (IC50) came to 20 nM against PI3Kβ (Table 2a, same assay); 36 nM against PI3Kδ (Table 2a, same assay); 280 nM at PI3Kγ (Table 2a, same assay).

Turning to `CC[C@H](Nc1nc(N)nc(Cl)c1C#N)c1nc2c(C#N)cccc2c(=O)n1-c1cc[nH]n1` [Compound 96, (S)-2-(1-((2-amino-6-chloro-5-cyanopyrimidin-4-yl)amino)propyl)-4-oxo-3-(1H-pyrazol-3-yl)-3,4-dihydroquinazoline-8-carbonitrile], the IC50 was 22 nM against PI3Kβ (setting [1]), 12 nM on PI3Kδ (setting [1]) and over 10000 nM on PI3Kγ.

With `C[C@H](Nc1nc(N)nc(N)c1Cl)c1nc2cc(F)cc(Cl)c2c(=O)n1-c1cc[nH]n1` [Compound 238, (S)-5-chloro-2-(1-((2,6-diamino-5-chloropyrimidin-4-yl)amino)ethyl)-7-fluoro-3-(1H-pyrazol-3-yl)quinazolin-4(3H)-one], the IC50 against PI3Kβ (Table 2a, same assay) was 21 nM; against PI3Kδ (Table 2a, same assay), 15 nM; on PI3Kγ (Table 2a, same assay), over 10000 nM.

For the compound `Nc1ncnc(N[C@H](c2nc3cccc(Cl)c3c(=O)n2-c2cc[nH]n2)C2CC2)c1Cl` [Compound 165, (S)-2-(((6-amino-5-chloropyrimidin-4-yl)amino)(cyclopropyl)methyl)-5-chloro-3-(1H-pyrazol-3-yl)quinazolin-4(3H)-one], the IC50 against PI3Kβ (Table 2a, same assay) was 6 nM; on PI3Kδ (Table 2a, same assay) it was 1 nM; at PI3Kγ (Table 2a, same assay), 4200 nM.

On to `N#Cc1c(N)nc(N)nc1N[C@H](c1nc2cc(F)cc(Cl)c2c(=O)n1-c1cc[nH]n1)C1CC1` [Compound 239, (S)-2,4-diamino-6-(((5-chloro-7-fluoro-4-oxo-3-(1H-pyrazol-3-yl)-3,4-dihydroquinazolin-2-yl)(cyclopropyl)methyl)amino)pyrimidine-5-carbonitrile], for which the IC50 at PI3Kβ (Table 2a, same assay) was found to be 3 nM; against PI3Kδ (Table 2a, same assay), 4 nM; at PI3Kγ (Table 2a, same assay), 2700 nM.

`C[C@H](NC(=O)c1nc(Cl)c(N)nc1N)c1nc2c(F)ccc(Cl)c2c(=O)n1-c1cn[nH]c1` [Compound 278, (S)-3,5-diamino-6-chloro-N-(1-(5-chloro-8-fluoro-4-oxo-3-(1H-pyrazol-4-yl)-3,4-dihydroquinazolin-2-yl)ethyl)pyrazine-2-carboxamide]: the IC50 was determined as 83 nM on PI3Kβ (Table 2a, same assay); 53 nM against PI3Kδ (Table 2a, same assay); 590 nM on PI3Kγ (Table 2a, same assay).

Regarding `Nc1nc(N)c(Cl)c(N[C@H](c2nc3c(F)cccc3c(=O)n2-c2cc[nH]n2)C2CC2)n1` [Compound 12, (S)-2-(cyclopropyl((2,6-diamino-5-chloropyrimidin-4-yl)amino)methyl)-8-fluoro-3-(1H-pyrazol-3-yl)quinazolin-4(3H)-one], the IC50 against PI3Kβ (setting [1]) was 220 nM; at PI3Kδ (setting [1]) it was 51 nM; on PI3Kγ, over 10000 nM.

As for `Cc1c[nH]nc1-n1c([C@@H](Nc2nc(N)nc(Cl)c2C#N)C2CC2)nc2c(C#N)cccc2c1=O` [Compound 246, (S)-2-(((2-amino-6-chloro-5-cyanopyrimidin-4-yl)amino)(cyclopropyl)methyl)-3-(4-methyl-1H-pyrazol-3-yl)-4-oxo-3,4-dihydroquinazoline-8-carbonitrile], the IC50 is 320 nM against PI3Kβ (Table 2a, same assay); 36 nM on PI3Kδ (Table 2a, same assay); over 10000 nM at PI3Kγ (Table 2a, same assay).

Turning to `Nc1nc(N)c(Cl)c(N[C@H](c2nc3c(F)ccc(F)c3c(=O)n2-c2cc[nH]n2)C2CC2)n1` [Compound 11, (S)-2-(cyclopropyl((2,6-diamino-5-chloropyrimidin-4-yl)amino)methyl)-5,8-difluoro-3-(1H-pyrazol-3-yl)quinazolin-4(3H)-one], the results for the IC50 on PI3Kβ (setting [1]), against PI3Kδ (setting [1]) and at PI3Kγ were 120 nM, 44 nM and over 10000 nM, respectively.

On to `Cc1c[nH]nc1-n1c([C@@H](Nc2nc(N)nc(C)c2C#N)C2CC2)nc2cccc(Cl)c2c1=O` [Compound 244, (S)-2-amino-4-(((5-chloro-3-(4-methyl-1H-pyrazol-3-yl)-4-oxo-3,4-dihydroquinazolin-2-yl)(cyclopropyl)methyl)amino)-6-methylpyrimidine-5-carbonitrile], for which the IC50 against PI3Kβ (Table 2a, same assay) came to 31 nM; on PI3Kδ (Table 2a, same assay), 8 nM; on PI3Kγ (Table 2a, same assay), 960 nM.

As for `Cc1n[nH]cc1-n1c([C@@H](Nc2nc(N)nc(N)c2C#N)C2CC2)nc2c(Cl)cc(F)cc2c1=O` [Compound 220, (S)-2,4-diamino-6-(((8-chloro-6-fluoro-3-(3-methyl-1H-pyrazol-4-yl)-4-oxo-3,4-dihydroquinazolin-2-yl)(cyclopropyl)methyl)amino)pyrimidine-5-carbonitrile], the IC50 was found to be 42 nM against PI3Kβ (Table 2a, same assay); 7 nM against PI3Kδ (Table 2a, same assay); 2200 nM on PI3Kγ (Table 2a, same assay).

With `C[C@H](Nc1nc(N)nc(N)c1Cl)c1nc2c(F)ccc(Cl)c2c(=O)n1-c1cn[nH]c1` [Compound 159, (S)-5-chloro-2-(1-((2,6-diamino-5-chloropyrimidin-4-yl)amino)ethyl)-8-fluoro-3-(1H-pyrazol-4-yl)quinazolin-4(3H)-one], the IC50 is 22 nM on PI3Kβ (Table 2a, same assay); 3 nM against PI3Kδ (Table 2a, same assay); 1600 nM on PI3Kγ (Table 2a, same assay).

Regarding `CC[C@H](Nc1nc(N)nc(N)c1C#N)c1nc2cccc(Cl)c2c(=O)n1-c1cc(CCCOC)[nH]n1` [Compound 49, (S)-2,4-diamino-6-((1-(5-chloro-3-(5-(3-methoxypropyl)-1H-pyrazol-3-yl)-4-oxo-3,4-dihydroquinazolin-2-yl)propyl)amino)pyrimidine-5-carbonitrile], the IC50 is 150 nM against PI3Kβ (setting [1]), 9 nM on PI3Kδ (setting [1]) and 3500 nM at PI3Kγ (setting [1]).

For the compound `O=c1c2c(Cl)ccc(Cl)c2nc([C@@H](Nc2ncnc3scnc23)C2CC2)n1-c1cc[nH]n1` [Compound 37, (S)-5,8-dichloro-2-(cyclopropyl(thiazolo[5,4-d]pyrimidin-7-ylamino)methyl)-3-(1H-pyrazol-3-yl)quinazolin-4(3H)-one], the results for the IC50 against PI3Kβ (setting [1]), on PI3Kδ (setting [1]) and on PI3Kγ (setting [1]) were 1 nM, 0.6 nM and 5100 nM, respectively.

For the compound `CC[C@H](Nc1ncnc2scnc12)c1nc2c(Cl)ccc(Cl)c2c(=O)n1-c1cc[nH]n1` [Compound 46, (S)-5,8-dichloro-3-(1H-pyrazol-3-yl)-2-(1-(thiazolo[5,4-d]pyrimidin-7-ylamino)propyl)quinazolin-4(3H)-one], the values for the IC50 on PI3Kβ (setting [1]), against PI3Kδ (setting [1]) and on PI3Kγ were 18 nM, 4 nM and over 10000 nM, respectively.

As to `N#Cc1c(N)nc(N)nc1N[C@H](c1nc2cccc(C(F)F)c2c(=O)n1-c1cc[nH]n1)C1CC1` [Compound 214, (S)-2,4-diamino-6-((cyclopropyl(5-(difluoromethyl)-4-oxo-3-(1H-pyrazol-3-yl)-3,4-dihydroquinazolin-2-yl)methyl)amino)pyrimidine-5-carbonitrile], the IC50 against PI3Kβ (Table 2a, same assay) turned out to be 2 nM; on PI3Kδ (Table 2a, same assay) it was 0.6 nM; on PI3Kγ (Table 2a, same assay) it was 240 nM.

As for `CCC[C@H](Nc1nc(N)nc(N)c1C#N)c1nc2cccc(Cl)c2c(=O)n1-c1cc[nH]n1` [Compound 253, (S)-2,4-diamino-6-((1-(5-chloro-4-oxo-3-(1H-pyrazol-3-yl)-3,4-dihydroquinazolin-2-yl)butyl)amino)pyrimidine-5-carbonitrile], the IC50 against PI3Kβ (Table 2a, same assay) stood at 4 nM; at PI3Kδ (Table 2a, same assay) it was 1 nM; at PI3Kγ (Table 2a, same assay), 320 nM.

Take `CC[C@H](Nc1nc(N)nc(N)c1Cl)c1nc2c(Cl)ccc(Cl)c2c(=O)n1-c1cc[nH]n1` [Compound 66, (S)-5,8-dichloro-2-(1-((2,6-diamino-5-chloropyrimidin-4-yl)amino)propyl)-3-(1H-pyrazol-3-yl)quinazolin-4(3H)-one]: the IC50 against PI3Kβ (setting [1]) was 150 nM; on PI3Kδ (setting [1]), 36 nM; at PI3Kγ, over 10000 nM.

Take `O=c1c2c(Cl)cccc2nc([C@H](CO)Nc2ncnc3scnc23)n1-c1cc[nH]n1` [Compound 51, (R)-5-chloro-2-(2-hydroxy-1-(thiazolo[5,4-d]pyrimidin-7-ylamino)ethyl)-3-(1H-pyrazol-3-yl)quinazolin-4(3H)-one]: the IC50 against PI3Kβ (setting [1]) is 9 nM; against PI3Kδ (setting [1]), 2 nM; on PI3Kγ it was over 10000 nM.

Turning to `CC[C@H](Nc1ncnc2cccnc12)c1nc2c(Cl)ccc(Cl)c2c(=O)n1-c1cc[nH]n1` [Compound 44, (S)-5,8-dichloro-3-(1H-pyrazol-3-yl)-2-(1-(pyrido[3,2-d]pyrimidin-4-ylamino)propyl)quinazolin-4(3H)-one], the IC50 against PI3Kβ (setting [1]) is 84 nM; against PI3Kδ (setting [1]) it was 10 nM; on PI3Kγ, over 10000 nM.

For the compound `CC[C@H](Nc1nc(Cl)nc2[nH]nc(C)c12)c1nc2c(Cl)ccc(Cl)c2c(=O)n1-c1cc[nH]n1` [Compound 88, (S)-5,8-dichloro-2-(1-((6-chloro-3-methyl-1H-pyrazolo[3,4-d]pyrimidin-4-yl)amino)propyl)-3-(1H-pyrazol-3-yl)quinazolin-4(3H)-one], the IC50 on PI3Kβ (setting [1]) was 4200 nM; on PI3Kδ (setting [1]), 2700 nM; at PI3Kγ it was over 10000 nM.

`C[C@H](Nc1nc(N)nc(N)c1C#N)c1nc2cccc(C(F)F)c2c(=O)n1-c1cc[nH]n1` [Compound 211, (S)-2,4-diamino-6-((1-(5-(difluoromethyl)-4-oxo-3-(1H-pyrazol-3-yl)-3,4-dihydroquinazolin-2-yl)ethyl)amino)pyrimidine-5-carbonitrile]: the IC50 against PI3Kβ (Table 2a, same assay) turned out to be 0.6 nM; against PI3Kδ (Table 2a, same assay), 0.3 nM; at PI3Kγ (Table 2a, same assay) it was 82 nM.
